For the experiment, the system named is HeLa GFP-LC3 puncta imaging, 4 h. The experiment can be described thus: autophagy induction measured as tagged microtubule-associated protein 1 light chain 3 foci, microscopic imaging, green fluorescent protein-light chain 3 HeLa reporter, with rapamycin or Torin1 co-treatment (AID 1963957). The settings on record: for puncta normalized to Torin1: at 20 µM, stronger effect = higher value.

From PubChem BioAssay AID1963957 (Xavier Lab, Infectious Disease and Microbiome Program, …, 2024) come the findings set out here.

The EC50 is the concentration at which the effect is half-maximal.

Activity calls are given as the source filed them.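 The calls were made as follows: active = significant rise in GFP-LC3 puncta area per cell versus the same autophagy-inducer co-treatment given without compound; inactive = the rest.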

As to `CCC(C)(C)C(=O)C(=O)N1CCCC[C@H]1C(=O)N[C@H](CCc1ccc(OC)cc1)C(=O)N1[C@@H]2CC[C@H]1CC(Nc1nc(NCCc3sc(N)nc3C)nc(N(C)Cc3nnc4n3CCC4)n1)C2` (stereo partly specified), the puncta normalized to Torin1 is 0.13 (inactive) (no co-treatment), 0.68 (inactive) (with Rapamycin) and 0.98 (inactive) (with Torin1).
In the case of `CCC(=O)N1CCN(c2ccc(-n3c(=O)ccc4cnc5ccc(-c6cnc7ccccc7c6)cc5c43)cc2C(F)(F)F)CC1`, the puncta normalized to Torin1 (with Torin1) was 1.
As for `CCC(C)(C)C(=O)C(=O)N1CCCC[C@H]1C(=O)N[C@H](CCc1ccc(OC)cc1)C(=O)N1[C@@H]2CC[C@H]1CC(Nc1nc(NCCc3sc(N)nc3C)nc(N3CCn4ncnc4C3)n1)C2` (stereo partly specified), the EC50 by setting is: (no co-treatment) 12 µM; (with Rapamycin) 11.5 µM; (with Torin1) 29.3 µM.
On to `CCC(C)(C)C(=O)C(=O)N1CCCC[C@H]1C(=O)N[C@H](CCc1ccc(OC)cc1)C(=O)N1CC[C@H](Nc2nc(NCCc3sc(N)nc3C)nc(N(C)Cc3nnc4n3CCC4)n2)C1`, for which the puncta normalized to Torin1 is -0.05 (inactive) (no co-treatment), 0.32 (inactive) (with Rapamycin) and 0.72 (inactive) (with Torin1).
For `CCC(C)(C)C(=O)C(=O)N1CCCC[C@H]1C(=O)N[C@H](CCc1ccc(OC)cc1)C(=O)N1CC(Nc2nc(NCCc3sc(N)nc3C)nc(NCCn3cnc4ccccc43)n2)C1` the same measures were 0.06 (inactive), 0.85 and 1.47 (inactive).
Take `CO[C@H]1C[C@@H]2CC[C@@H](C)[C@@](O)(O2)C(=O)C(=O)N2CCCC[C@H]2C(=O)O[C@H]([C@H](C)C[C@@H]2CC[C@@H](O)[C@H](OC)C2)CC(=O)[C@H](C)/C=C(\C)[C@@H](O)[C@@H](OC)C(=O)[C@H](C)C[C@H](C)\C=C/C=C/C=C/1C`: the puncta normalized to Torin1 (with Rapamycin) was 0.39.
In the case of `CCC(C)(C)C(=O)C(=O)N1CCCC[C@H]1C(=O)N[C@H](CCc1ccc(OC)cc1)C(=O)N1[C@@H]2CC[C@H]1CC(Nc1nc(NCCc3sc(N)nc3C)nc(NCCn3cnc4ccccc43)n1)C2` (stereo partly specified), the puncta normalized to Torin1 is 0.49 (no co-treatment), 1.54 (with Rapamycin) and 2.17 (with Torin1).
For `CCC(C)(C)C(=O)C(=O)N1CCCC[C@H]1C(=O)N[C@H](CCc1ccc(OC)cc1)C(=O)N1[C@@H]2CC[C@H]1CC(Nc1nc(NCCc3sc(N)nc3C)nc(NCc3ccnc(CO)c3)n1)C2` (stereo partly specified) the same measures were 0.14 (inactive), 1.02 and 1.59.
For the molecule `CS(C)=O`, the puncta normalized to Torin1 (no co-treatment) was 0 (inactive).
